For twelve compounds, IC50 results are on record in US9884063B2, “Amido-substituted azole compounds” (Bayer Pharma Aktiengesellschaft, priority 2014, dated 2018).

In this assay the target is T1, TNKS2 (Homo sapiens, UniProt Q9H2K2).
T1 sequence (Q9H2K2 1-1166): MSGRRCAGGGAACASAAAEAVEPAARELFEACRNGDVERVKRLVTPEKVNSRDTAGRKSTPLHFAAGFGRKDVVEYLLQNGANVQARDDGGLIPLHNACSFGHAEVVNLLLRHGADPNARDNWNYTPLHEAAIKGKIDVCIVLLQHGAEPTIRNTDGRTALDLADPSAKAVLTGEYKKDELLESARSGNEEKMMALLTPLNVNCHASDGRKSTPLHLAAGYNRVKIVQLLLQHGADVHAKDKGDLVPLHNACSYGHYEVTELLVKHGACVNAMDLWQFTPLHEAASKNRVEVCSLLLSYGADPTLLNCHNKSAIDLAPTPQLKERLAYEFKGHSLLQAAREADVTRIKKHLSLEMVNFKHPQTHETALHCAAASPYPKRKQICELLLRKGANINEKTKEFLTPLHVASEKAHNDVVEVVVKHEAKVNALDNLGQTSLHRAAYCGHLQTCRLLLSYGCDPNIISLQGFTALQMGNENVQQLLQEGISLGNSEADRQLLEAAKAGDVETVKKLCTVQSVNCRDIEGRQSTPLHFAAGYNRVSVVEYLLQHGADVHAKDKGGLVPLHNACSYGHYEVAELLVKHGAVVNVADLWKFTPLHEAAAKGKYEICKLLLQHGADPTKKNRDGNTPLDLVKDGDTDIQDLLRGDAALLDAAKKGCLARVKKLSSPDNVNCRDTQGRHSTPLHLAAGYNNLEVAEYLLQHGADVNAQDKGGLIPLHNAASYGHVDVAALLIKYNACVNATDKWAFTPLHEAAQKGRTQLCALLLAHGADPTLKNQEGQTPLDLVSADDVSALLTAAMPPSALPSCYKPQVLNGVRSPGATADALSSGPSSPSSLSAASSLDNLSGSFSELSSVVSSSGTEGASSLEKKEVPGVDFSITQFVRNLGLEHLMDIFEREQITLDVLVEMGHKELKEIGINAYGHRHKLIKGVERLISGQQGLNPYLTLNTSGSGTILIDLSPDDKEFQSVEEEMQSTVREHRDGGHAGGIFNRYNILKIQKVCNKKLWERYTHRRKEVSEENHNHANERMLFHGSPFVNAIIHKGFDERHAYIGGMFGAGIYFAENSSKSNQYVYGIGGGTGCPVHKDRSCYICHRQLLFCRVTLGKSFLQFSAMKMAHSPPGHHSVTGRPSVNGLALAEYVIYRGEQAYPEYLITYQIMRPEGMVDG
As to the kind of experiment: Modified TNKS2 Assay 2 (auto-parsylation, [3H]-NAD+ SPA). The format is biochemical. The note with it: 6 nM TNKS2, 96 well.
Consider `CNC(=O)c1[nH]c(C(C)C)nc1C(=O)Nc1ccc(NC(=O)c2ccc(F)cc2Cl)cc1` [Example 106, N^4-{4-[(2-chloro-4-fluorobenzoyl)amino]phenyl}-2-isopropyl-N^5-methyl-1H-imidazole-4,5-dicarboxamide], for which the half-inhibitory concentration (IC50) was above 10000 nM.

As for `COC(=O)c1nc[nH]c1C(=O)Nc1ccc(NC(=O)c2ccccc2Cl)c(C)c1` [Example 86, methyl-5-({4-[(2-chlorobenzoyl)amino]-3-methylphenyl}carbamoyl)-1H-imidazole-4-carboxylate], the IC50 stood at 3400 nM. The compound `CN(C)CCNC(=O)c1nc[nH]c1C(=O)Nc1ccc(NC(=O)c2ccccc2Cl)nc1` [Example 113, N^5-{6-[(2-chlorobenzoyl)amino]pyridin-3-yl}-N^4-[2-(dimethylamino)ethyl]-1H-imidazole-4,5-dicarboxamide] displayed a half-inhibitory concentration (IC50) of 40 nM. This IC50 lies about 85-fold lower than the previous one. `CNC(=O)c1nc[nH]c1C(=O)Nc1ccc(NC(=O)c2ccc(F)cc2Cl)c(OC)c1` [Example 95, N^5-{4-[(2-chloro-4-fluorobenzoyl)amino]-3-methoxyphenyl}-N^4-methyl-1H-imidazole-4,5-dicarboxamide]: the IC50 amounted to 470 nM. This IC50 lies about 12-fold higher than the previous one. As to `COC(=O)c1nc[nH]c1C(=O)Nc1ccc(NC(=O)c2ccc(F)cc2Cl)c(OC)c1` [Example 94, methyl 5-({4-[(2-chloro-4-fluorobenzoyl)amino]-3-methoxyphenyl}carbamoyl)-1H-imidazole-4-carboxylate], the IC50 turned out to be 500 nM. This IC50 and that of the compound before are within 1.5-fold of each other. As to `COc1cc(NC(=O)c2[nH]cnc2C(=O)NCCN(C)C)ccc1NC(=O)c1ccccc1Cl` [Example 100, N^5-{4-[(2-chlorobenzoyl)amino]-3-methoxyphenyl}-N^4-[2-(dimethylamino)ethyl]-1H-imidazole-4,5-dicarboxamide], the half-inhibitory concentration (IC50) turned out to be 160 nM. For the compound `COC(=O)c1nc[nH]c1C(=O)Nc1ccc(NC(=O)c2ccc(F)cc2)c(OC)c1` [Example 102, methyl 5-({4-[(4-fluorobenzoyl)amino]-3-methoxyphenyl}carbamoyl)-1H-imidazole-4-carboxylate], the half-inhibitory concentration (IC50) is above 10000 nM.

On to `COc1cc(NC(=O)c2[nH]cnc2C(=O)NCCN(C)C)ccc1NC(=O)c1ccc(F)cc1Cl` [Example 96, N^5-{4-[(2-chloro-4-fluorobenzoyl)amino]-3-methoxyphenyl}-N^4-[2-(dimethylamino)ethyl]-1H-imidazole-4,5-dicarboxamide], for which the concentration for half-maximal inhibition (IC50) amounted to 40 nM. In other words, the double-digit nanomolar range. For `Cc1cc(NC(=O)c2[nH]cnc2C(=O)NCCN2CCCCC2)ccc1NC(=O)c1ccccc1Cl` [Example 89, N^5-{4-[(2-chlorobenzoyl)amino]-3-methylphenyl}-N^4-[2-(piperidin-1-yl)ethyl]-1H-imidazole-4,5-dicarboxamide], the half-maximal inhibitory concentration (IC50) came out at 50 nM. This IC50 and that of the compound before are within 1.5-fold of each other.

For the compound `COC(=O)c1nc[nH]c1C(=O)Nc1ccc(NC(=O)c2ccccc2Cl)c(OC)c1` [Example 98, methyl 5-({4-[(2-chlorobenzoyl)amino]-3-methoxyphenyl}carbamoyl)-1H-imidazole-4-carboxylate], half-maximal inhibition (IC50) was put at 370 nM. This IC50 is about 7.4-fold higher than that of the compound before. The figure for `CNC(=O)c1nc[nH]c1C(=O)Nc1ccc(NC(=O)c2ccccc2Cl)nc1` [Example 112, N^5-{6-[(2-chlorobenzoyl)amino]pyridin-3-yl}-N^4-methyl-1H-imidazole-4,5-dicarboxamide] is 370 nM; for `COc1cc(NC(=O)c2[nH]cnc2C(=O)NCCN2CCCCC2)ccc1NC(=O)c1ccc(F)cc1Cl` [Example 97, N^5-{4-[(2-chloro-4-fluorobenzoyl)amino]-3-methoxyphenyl}-N^4-[2-(piperidin-1-yl)ethyl]-1H-imidazole-4,5-dicarboxamide] it is 5 nM.
